Experimental data reported in US20260365670A1, “EGFR INHIBITORS AND USES THEREOF” (DIZAL (JIANGSU) PHARMACEUTICAL CO., LTD., priority 2022, published 2026).
pIC50: −log10 of the molar value. Where two headings read alike, the source gives them in different places.

How the values were obtained:
EGFR L858R/T790M = target: T1, EGFR L858R/T790M (Homo sapiens, UniProt P00533, L858R/T790M); test: Inhibition of EGFR L858R/T790M biochemical enzymatic activity (HTRF); details: 1 mM ATP; for IC50: EGFR L858R-T790M, 1 h, room temperature, read-out: IC50 (nM) @L858R-T790M
T1 construct: purchased Carna Bio
Outline: (§1)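 Time-resolved FRET assay of EGFR substrate phosphorylation. Conditions: 1 μM TK substrate-biotin, 1 mM ATP, Mg/Mn buffer, 1 h at RT. IC50 from 4-parameter curve fit.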

EGFR wild type = target: T2, EGFR wild type (Homo sapiens, UniProt P00533); test: Inhibition of EGFR wild type biochemical enzymatic activity (HTRF); details: 1 mM ATP; for IC50: EGFR WT, 1 h, room temperature, read-out: IC50 (nM) @WT
T2 construct: purchased Carna Bio
T2 sequence (P00533 25-1210): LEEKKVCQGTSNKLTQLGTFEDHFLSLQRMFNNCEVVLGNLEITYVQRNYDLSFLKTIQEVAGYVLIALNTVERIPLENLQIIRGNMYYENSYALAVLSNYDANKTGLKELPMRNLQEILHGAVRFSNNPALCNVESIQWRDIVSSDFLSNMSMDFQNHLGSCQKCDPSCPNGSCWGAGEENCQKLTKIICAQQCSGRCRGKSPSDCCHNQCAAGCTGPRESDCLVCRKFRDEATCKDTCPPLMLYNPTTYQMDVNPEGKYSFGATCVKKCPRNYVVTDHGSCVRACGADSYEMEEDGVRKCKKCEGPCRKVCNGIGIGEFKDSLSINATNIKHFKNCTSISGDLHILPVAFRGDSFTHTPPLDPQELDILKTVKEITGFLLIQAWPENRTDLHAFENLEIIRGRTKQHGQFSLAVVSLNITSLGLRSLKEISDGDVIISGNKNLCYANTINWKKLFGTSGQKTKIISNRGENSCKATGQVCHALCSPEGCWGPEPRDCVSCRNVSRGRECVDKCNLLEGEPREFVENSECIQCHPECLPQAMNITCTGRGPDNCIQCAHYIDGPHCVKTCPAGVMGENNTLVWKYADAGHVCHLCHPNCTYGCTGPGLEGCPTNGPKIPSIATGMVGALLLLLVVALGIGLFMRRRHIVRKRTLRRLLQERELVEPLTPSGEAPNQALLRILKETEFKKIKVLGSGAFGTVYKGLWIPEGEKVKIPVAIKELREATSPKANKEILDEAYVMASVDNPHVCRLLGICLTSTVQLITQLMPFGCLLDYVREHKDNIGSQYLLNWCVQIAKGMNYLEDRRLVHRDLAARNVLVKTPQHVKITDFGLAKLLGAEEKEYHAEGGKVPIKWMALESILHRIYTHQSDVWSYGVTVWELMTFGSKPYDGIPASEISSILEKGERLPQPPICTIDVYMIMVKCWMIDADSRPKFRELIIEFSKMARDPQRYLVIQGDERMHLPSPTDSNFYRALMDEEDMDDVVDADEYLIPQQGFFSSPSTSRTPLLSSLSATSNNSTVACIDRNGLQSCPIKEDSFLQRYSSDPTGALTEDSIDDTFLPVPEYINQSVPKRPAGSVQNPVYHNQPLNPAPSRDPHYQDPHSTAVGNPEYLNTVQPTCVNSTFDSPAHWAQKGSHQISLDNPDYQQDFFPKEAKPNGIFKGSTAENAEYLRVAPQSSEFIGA
Outline: as §1

EGFR (C797S L858R) = target: T3, EGFR (C797S L858R) (Homo sapiens, UniProt P00533, C797S/L858R); test: Inhibition of EGFR (C797S L858R) biochemical enzymatic activity (HTRF); details: 1 mM ATP; for IC50: EGFR L858-C797S, 1 h, room temperature, read-out: IC50 (nM) @L858-C797S
T3 construct: purchased signalchem
T3 sequence (P00533 25-1210 C797S/L858R): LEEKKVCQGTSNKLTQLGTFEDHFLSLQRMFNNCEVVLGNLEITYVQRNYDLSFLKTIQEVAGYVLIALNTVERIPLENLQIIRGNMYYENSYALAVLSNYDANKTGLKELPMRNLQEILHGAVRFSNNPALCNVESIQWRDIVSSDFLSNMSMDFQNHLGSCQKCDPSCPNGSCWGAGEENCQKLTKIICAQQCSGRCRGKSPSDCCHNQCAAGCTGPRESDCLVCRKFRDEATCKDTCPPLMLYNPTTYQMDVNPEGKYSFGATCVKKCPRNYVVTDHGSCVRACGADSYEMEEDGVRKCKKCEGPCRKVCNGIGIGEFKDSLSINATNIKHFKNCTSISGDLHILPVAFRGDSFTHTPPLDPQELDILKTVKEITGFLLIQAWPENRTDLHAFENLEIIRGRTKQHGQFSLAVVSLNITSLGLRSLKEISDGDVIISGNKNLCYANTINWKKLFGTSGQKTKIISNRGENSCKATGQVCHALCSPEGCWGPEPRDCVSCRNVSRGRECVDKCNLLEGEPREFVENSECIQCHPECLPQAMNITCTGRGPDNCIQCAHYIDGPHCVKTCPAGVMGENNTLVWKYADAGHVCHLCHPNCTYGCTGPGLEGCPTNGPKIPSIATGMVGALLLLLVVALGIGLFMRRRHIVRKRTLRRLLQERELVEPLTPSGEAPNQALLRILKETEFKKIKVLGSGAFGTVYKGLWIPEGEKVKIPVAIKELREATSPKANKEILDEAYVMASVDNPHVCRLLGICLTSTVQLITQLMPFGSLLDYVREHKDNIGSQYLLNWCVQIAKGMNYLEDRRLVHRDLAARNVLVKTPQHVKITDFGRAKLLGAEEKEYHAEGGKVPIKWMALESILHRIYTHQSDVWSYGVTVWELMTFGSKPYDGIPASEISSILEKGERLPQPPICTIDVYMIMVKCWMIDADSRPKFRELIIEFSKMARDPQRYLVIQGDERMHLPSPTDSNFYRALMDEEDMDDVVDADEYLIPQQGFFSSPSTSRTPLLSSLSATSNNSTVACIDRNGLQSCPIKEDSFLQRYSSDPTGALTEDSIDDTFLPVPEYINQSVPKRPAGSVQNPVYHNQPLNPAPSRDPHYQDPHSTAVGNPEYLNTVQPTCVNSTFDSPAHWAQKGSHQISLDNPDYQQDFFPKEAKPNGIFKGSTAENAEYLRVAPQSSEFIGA
Outline: as §1

A-431 = test: Cell proliferation assay, A-431 cells (GI50, Table 6); type: cell-based
Procedure: [Worded in the source for another cell line; this cell line is reported under the same test.] Ba/F3 cells expressing EGFR mutations were seeded in 384-well plates at 5000 cells/well in RPMI1640 medium containing […]. PC-9 at 500 cells/well was seeded into 384-well plates in RPMI1640 medium with 10% FBS. After overnight incubation, the assay plates were dosed with compounds at a series of concentrations. Alongside dosing the assay plates, the day 0 plate was processed using CellTiter-Glo® Luminescent Cell Viability Assay (Promega) to measure the number of viable cells (G0). The assay plates were further incubated for 72 hours and the number of viable cells (G3) was measured. The percentage of proliferation was calculated as: […]=100×(G3 value of sample well−G0 value)/(G3 value of DMSO control−G0 value). The concentration of compound producing 50% proliferation inhibition (GI50) was further calculated in best-fit curves using XLFit software. N/A=not available.

EGFR (d746-750 C797S) = target: T4, EGFR (d746-750 C797S) (Homo sapiens, UniProt P00533, C797S/DEL746-750); test: Inhibition of EGFR (d746-750 C797S) biochemical enzymatic activity (HTRF); details: 1 mM ATP; for IC50: EGFR Del19-C797S, 1 h, room temperature, read-out: IC50 (nM) @Del19-C797S
T4 construct: purchased signalchem
T4 sequence (P00533 with tags, fused parts or gaps DEL746-750/C797S limits assumed): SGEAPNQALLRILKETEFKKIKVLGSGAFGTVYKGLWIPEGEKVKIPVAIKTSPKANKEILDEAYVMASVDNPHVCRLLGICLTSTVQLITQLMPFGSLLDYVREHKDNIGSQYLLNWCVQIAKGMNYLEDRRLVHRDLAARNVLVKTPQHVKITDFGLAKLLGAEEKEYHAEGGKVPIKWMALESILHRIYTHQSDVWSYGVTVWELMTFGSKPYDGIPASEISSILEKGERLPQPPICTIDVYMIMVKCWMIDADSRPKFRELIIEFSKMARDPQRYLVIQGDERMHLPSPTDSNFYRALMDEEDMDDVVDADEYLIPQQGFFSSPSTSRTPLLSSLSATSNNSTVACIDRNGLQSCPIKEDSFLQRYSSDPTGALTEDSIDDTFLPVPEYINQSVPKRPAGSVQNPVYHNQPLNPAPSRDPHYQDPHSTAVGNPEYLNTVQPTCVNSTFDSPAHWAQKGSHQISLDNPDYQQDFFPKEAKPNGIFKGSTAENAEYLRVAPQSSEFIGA
Outline: as §1

EGFR L858R = target: T5, EGFR L858R (Homo sapiens, UniProt P00533, L858R); test: Inhibition of EGFR L858R biochemical enzymatic activity (HTRF); details: 1 mM ATP; for IC50: 1 h, room temperature, read-out: IC50 (nM) @L858R
T5 construct: purchased Carna Bio
Outline: as §1

[1] = target: T6, EGFR[T790M/C797S/d746-750] (Homo sapiens, UniProt P00533, C797S/DEL746-750/T790M); test: Inhibition of EGFR[T790M/C797S/d746-750] biochemical enzymatic activity (HTRF); details: for IC50: EGFR T790M-C797S-Del19, 1 mM ATP, 1 h, room temperature, read-out: IC50 (nM) @T790M - C797S - Del19
T6 construct: purchased Carna Bio
Outline: as §1

EGFR Exon19Del/T790M = target: T7, EGFR Exon19Del/T790M (Homo sapiens, UniProt P00533, DEL746-750/T790M); test: Inhibition of EGFR Exon19Del/T790M biochemical enzymatic activity (HTRF); details: 1 mM ATP; for IC50: EGFR Del19-T790M, 1 h, room temperature, read-out: IC50 (nM) @Del19-T790M
T7 construct: purchased Carna Bio
T7 sequence (P00533 with tags, fused parts or gaps DEL746-750/T790M limits assumed): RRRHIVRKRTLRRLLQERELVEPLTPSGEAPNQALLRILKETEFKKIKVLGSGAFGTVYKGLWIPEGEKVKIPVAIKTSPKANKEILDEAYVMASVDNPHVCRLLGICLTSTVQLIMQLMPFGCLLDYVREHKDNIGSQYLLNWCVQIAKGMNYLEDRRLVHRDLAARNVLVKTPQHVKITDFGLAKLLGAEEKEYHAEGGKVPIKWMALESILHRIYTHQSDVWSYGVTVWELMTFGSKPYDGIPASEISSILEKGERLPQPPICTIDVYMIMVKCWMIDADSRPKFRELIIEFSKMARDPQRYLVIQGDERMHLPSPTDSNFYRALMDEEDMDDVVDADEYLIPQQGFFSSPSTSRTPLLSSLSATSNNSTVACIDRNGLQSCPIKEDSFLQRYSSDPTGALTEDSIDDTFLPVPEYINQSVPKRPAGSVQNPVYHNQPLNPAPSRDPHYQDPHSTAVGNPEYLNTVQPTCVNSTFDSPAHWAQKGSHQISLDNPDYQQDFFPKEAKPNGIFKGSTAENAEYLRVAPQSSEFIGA
Outline: as §1

EGFR[T790M/C797S/L858R] = target: T8, EGFR[T790M/C797S/L858R] (Homo sapiens, UniProt P00533, C797S/L858R/T790M); test: Inhibition of EGFR[T790M/C797S/L858R] biochemical enzymatic activity (HTRF); details: 1 mM ATP; for IC50: EGFR T790M-C797S-L858R, 1 h, room temperature, read-out: IC50 (nM) @T790M- C797S - L858R
T8 construct: purchased Carna Bio
T8 sequence (P00533 25-1210 T790M/C797S/L858R): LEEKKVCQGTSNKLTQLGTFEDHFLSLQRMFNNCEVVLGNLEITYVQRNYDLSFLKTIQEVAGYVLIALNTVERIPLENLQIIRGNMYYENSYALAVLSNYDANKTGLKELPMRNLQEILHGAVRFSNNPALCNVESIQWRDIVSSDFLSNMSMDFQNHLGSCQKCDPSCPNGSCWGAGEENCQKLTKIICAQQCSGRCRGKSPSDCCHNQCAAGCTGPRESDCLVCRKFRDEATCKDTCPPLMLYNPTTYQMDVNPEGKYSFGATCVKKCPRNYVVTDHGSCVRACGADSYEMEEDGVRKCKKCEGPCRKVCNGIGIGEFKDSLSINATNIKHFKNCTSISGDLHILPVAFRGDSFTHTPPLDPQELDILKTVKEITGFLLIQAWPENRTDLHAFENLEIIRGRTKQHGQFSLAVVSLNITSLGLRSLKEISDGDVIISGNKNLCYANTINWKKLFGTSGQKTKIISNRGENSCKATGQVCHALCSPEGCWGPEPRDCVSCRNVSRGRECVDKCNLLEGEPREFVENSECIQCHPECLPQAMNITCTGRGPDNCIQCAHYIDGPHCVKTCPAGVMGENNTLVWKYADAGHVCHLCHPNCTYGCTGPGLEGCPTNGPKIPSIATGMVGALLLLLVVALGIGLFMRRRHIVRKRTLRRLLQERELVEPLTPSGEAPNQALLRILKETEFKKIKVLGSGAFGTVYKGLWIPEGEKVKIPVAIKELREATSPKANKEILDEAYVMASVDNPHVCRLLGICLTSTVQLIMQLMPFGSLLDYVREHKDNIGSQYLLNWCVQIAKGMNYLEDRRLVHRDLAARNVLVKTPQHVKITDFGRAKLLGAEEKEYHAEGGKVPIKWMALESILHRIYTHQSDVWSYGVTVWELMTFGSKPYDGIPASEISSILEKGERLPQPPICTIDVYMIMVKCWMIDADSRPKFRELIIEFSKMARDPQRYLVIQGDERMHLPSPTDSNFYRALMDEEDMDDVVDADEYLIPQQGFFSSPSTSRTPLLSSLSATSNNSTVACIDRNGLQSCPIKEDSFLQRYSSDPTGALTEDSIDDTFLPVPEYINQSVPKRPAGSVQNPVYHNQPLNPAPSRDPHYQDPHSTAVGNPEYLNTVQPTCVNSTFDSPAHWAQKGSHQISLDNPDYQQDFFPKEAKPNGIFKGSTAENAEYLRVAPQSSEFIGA
Outline: as §1

EGFR Exon19Del = target: T9, EGFR Exon19Del (Homo sapiens, UniProt P00533, DEL746-750); test: Inhibition of EGFR Exon19Del biochemical enzymatic activity (HTRF); details: read-out: IC50 @Del19
T9 construct: purchased Carna Bio
Outline: as §1

[2] = tested on: Ba/F3 cells expressing EGFR mutations; test: Cell proliferation assay, Ba/F3 cells expressing EGFR mutations (CellTiter-Glo, 72 hours); type: cell-based
Outline: (§2)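 In RPMI1640 medium (PC-9 with 10% FBS), each cell line was seeded at its own density: Ba/F3 5000 and PC-9 500 per well. A compound series was added the next day, with a time-zero viability plate read in parallel. Percent proliferation was subtracted for G0 and referenced to DMSO, and GI50 was derived by curve fitting.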

PC-9 = test: Cell proliferation assay, PC-9 cells (CellTiter-Glo, 72 hours); type: cell-based; details: PC9 cells, read-out: GI50 PC9
Outline: as §2

[3] = Homo sapiens, A-431, A-431 cells
[4] = EGFR Del19, 1 mM ATP, 1 h, room temperature
[5] = Mus musculus, BaF3, 72 h, BaF3 cells, EGFR DEL19 - C797S, read-out: GI50 DEL19 - C797S/BaF3
[6] = Mus musculus, BaF3, 72 h, BaF3 cells, EGFR DEL19 - T790-C797S, read-out: GI50 DEL19 - T790-C797S/BaF3
[7] = Mus musculus, BaF3, 72 h, BaF3 cells, EGFR L858R - C797S, read-out: GI50 L858R - C797S/BaF3
[8] = Mus musculus, BaF3, 72 h, BaF3 cells, EGFR L858R - T790-C797S, read-out: GI50 L858R - T790-C797S/BaF3
[9] = Mus musculus, BaF3, 72 h, BaF3 cells, EGFR L858R - T790M, read-out: GI50 L858R - T790M/BaF3
[10] = Mus musculus, BaF3, 72 h, BaF3 cells, EGFR L858R, read-out: GI50 L858R/BaF3
[11] = Mus musculus, BaF3, 72 h, EGFR DEL19 - T790M, read-out: GI50 DEL19 - T790M

CN(C)[C@H]1CCN(c2ccc3nc4n(c3c2)C23CCC(CC2)CN(CCOc2c(cnn2C)-c2cc(cn(C)c2=O)C(=O)N4)C3)C1 [Example A120]
IC50 (EGFR L858R/T790M): 374 nM | IC50 (EGFR wild type): > 5000 nM | IC50 (EGFR (C797S L858R)): 108 nM | GI50 (A-431; [3]): 7850 nM | IC50 (EGFR (d746-750 C797S)): 14 nM | IC50 (EGFR L858R): 177 nM | IC50 [1]: 15 nM | IC50 (EGFR Exon19Del/T790M): 16 nM | IC50 (EGFR[T790M/C797S/L858R]): 113 nM | pIC50 (EGFR Exon19Del; [4]): 7.66 | GI50 [2, 5]: 13 nM | GI50 [2, 6]: 71 nM | GI50 [2, 7]: 50 nM | GI50 [2, 8]: 28 nM | GI50 [2, 9]: 113 nM | GI50 [2, 10]: 8.1 nM | GI50 [2, 11]: 40 nM | GI50 (PC-9; Homo sapiens, PC-9, 72 h): 54 nM

COCCN(C)c1ccc2nc3n(c2c1)C12CCC(CN(CCOc4c(cnn4C)-c4cc(cc(C)n4)C(=O)N3)C1)C2 (single isomer, unassigned) [Example B46B]
pIC50 (EGFR L858R/T790M; EGFR L858R/T790M, 1 h at room temperature, read-out: IC50 @L858R-T790M): 7.92 | pIC50 (EGFR wild type; EGFR wild type, 1 h at room temperature, read-out: IC50 @WT): < 5.30 | pIC50 (EGFR (C797S L858R); EGFR (C797S L858R), 1 h at room temperature, read-out: IC50 @L858-C797S): 6.93 | GI50 (A-431; A-431 cells): 1360 nM | pIC50 (EGFR (d746-750 C797S); EGFR (d746-750 C797S), 1 h at room temperature, read-out: IC50 @Del19-C797S): 8.12 | pIC50 (EGFR L858R; 1 h at room temperature, read-out: IC50 @L858R): 6.42 | pIC50 ([1]; EGFR[T790M/C797S/d746-750], 1 mM ATP, 1 h at room temperature, read-out: IC50 @T790M - C797S - Del19): 8.43 | pIC50 (EGFR Exon19Del/T790M; EGFR Exon19Del/T790M, 1 h at room temperature, read-out: IC50 @Del19-T790M): 8.14 | pIC50 (EGFR[T790M/C797S/L858R]; EGFR[T790M/C797S/L858R], 1 h at room temperature, read-out: IC50 @T790M- C797S - L858R): 8.33 | pIC50 (EGFR Exon19Del; EGFR Exon19Del, 1 mM ATP, 1 h at room temperature): 7.55 | GI50 ([2]; BaF3 cells, EGFR DEL19 - C797S, read-out: GI50 DEL19 - C797S/BaF3): 2 nM | GI50 ([2]; BaF3 cells, EGFR DEL19 - T790-C797S, read-out: GI50 DEL19 - T790-C797S/BaF3): 2 nM | GI50 ([2]; BaF3 cells, EGFR L858R - T790-C797S, read-out: GI50 L858R - T790-C797S/BaF3): 2 nM | GI50 ([2]; BaF3 cells, EGFR L858R, read-out: GI50 L858R/BaF3): 36 nM | GI50 ([2]; EGFR DEL19 - T790M, read-out: GI50 DEL19 - T790M): 2 nM | GI50 (PC-9): 25 nM

Cc1cc2cc(n1)-c1cnn(C)c1OCCN1CCCCC(C1)n1c(nc3ccccc31)NC2=O (centres unmarked) [Example B4, 15,21-Dimethyl-23-oxa-2,9,11,16,20,21,26-heptaazahexacyclo[24.4.1.1^{13,17}.0^{2,10}.0^{3,8}.0^{18,22}]dotriaconta-3,5,7,9,13(32),14,16,18(22),19-nonaen-12-one]
IC50 (EGFR L858R/T790M): 847 nM | IC50 (EGFR wild type): > 5000 nM | IC50 (EGFR (C797S L858R)): 3630 nM | GI50 (A-431; [3]): 3530 nM | IC50 (EGFR (d746-750 C797S)): 243 nM | IC50 (EGFR L858R): > 5000 nM | IC50 [1]: 16 nM | IC50 (EGFR Exon19Del/T790M): 33 nM | IC50 (EGFR[T790M/C797S/L858R]): 532 nM | pIC50 (EGFR Exon19Del; [4]): 6.23 | GI50 [2, 5]: 125 nM | GI50 [2, 6]: 61 nM | GI50 [2, 7]: 342 nM | GI50 [2, 8]: 42 nM | GI50 [2, 10]: 612 nM | GI50 [2, 11]: 57 nM | GI50 (PC-9; Homo sapiens, PC-9, 72 h): 292 nM

CN1CCN(c2cc3c(cc2F)nc2n3C34CCC(CC3)CN(CCOc3c(cnn3C)-c3cc(cn(C)c3=O)C(=O)N2)C4)CC1 [Example A115, 6-fluoro-15,21-dimethyl-5-(4-methylpiperazin-1-yl)-23-oxa-2,9,11,15,20,21,26-heptaazaheptacyclo[26.2.2.1^{1,26}.1^{13,17}.0^{2,10}.0^{3,8}.0^{18,22}]tetratriaconta-3,5,7,9,13,17(34),18(22),19-octaene-12,16-dione]
IC50 (EGFR L858R/T790M): 325 nM | IC50 (EGFR wild type): > 5000 nM | IC50 (EGFR (C797S L858R)): 112 nM | GI50 (A-431; [3]): 3040 nM | IC50 (EGFR (d746-750 C797S)): 9.2 nM | IC50 (EGFR L858R): 233 nM | IC50 [1]: 6.6 nM | IC50 (EGFR Exon19Del/T790M): 12 nM | IC50 (EGFR[T790M/C797S/L858R]): 50 nM | GI50 [2, 5]: 7.6 nM | GI50 [2, 6]: 52 nM | GI50 [2, 7]: 61 nM | GI50 [2, 8]: 68 nM | GI50 [2, 9]: 133 nM | GI50 [2, 10]: 20 nM | GI50 [2, 11]: 18 nM | GI50 (PC-9; Homo sapiens, PC-9, 72 h): 94 nM
